Source: BindingDB's records for doi:10.1016/j.carres.2010.10.023 (East China University of Science and Technology, 2011)

What was measured:
Experiment in all cases: Inhibitor Assay
Conditions in all cases: 30 °C
[1] = biological target: T1, Tyrosine-protein phosphatase non-receptor type 1 (Homo sapiens, UniProt P18031)
T1 sequence (P18031 whole entry): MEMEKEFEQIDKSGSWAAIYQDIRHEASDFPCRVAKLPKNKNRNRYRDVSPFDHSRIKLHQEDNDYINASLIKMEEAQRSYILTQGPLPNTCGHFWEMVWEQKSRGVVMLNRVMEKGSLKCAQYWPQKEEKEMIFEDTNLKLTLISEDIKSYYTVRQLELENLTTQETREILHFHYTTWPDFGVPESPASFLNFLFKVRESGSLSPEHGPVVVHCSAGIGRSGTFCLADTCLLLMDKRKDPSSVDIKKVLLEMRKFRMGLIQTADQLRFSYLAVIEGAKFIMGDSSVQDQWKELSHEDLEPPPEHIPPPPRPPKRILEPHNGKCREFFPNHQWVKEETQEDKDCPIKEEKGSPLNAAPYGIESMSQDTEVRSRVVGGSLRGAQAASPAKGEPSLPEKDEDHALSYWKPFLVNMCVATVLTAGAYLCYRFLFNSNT
Procedure: The assay mixture ([…]) containing 50 mM MOPS (pH 6.5), 2 mM pNPP and PTP1B were monitored at 405 nm for 2 min at 30 C.

[2] = biological target: Tyrosine-protein phosphatase non-receptor type 6 (Homo sapiens, UniProt P29350)
Tyrosine-protein phosphatase non-receptor type 6, sequence (P29350 whole entry): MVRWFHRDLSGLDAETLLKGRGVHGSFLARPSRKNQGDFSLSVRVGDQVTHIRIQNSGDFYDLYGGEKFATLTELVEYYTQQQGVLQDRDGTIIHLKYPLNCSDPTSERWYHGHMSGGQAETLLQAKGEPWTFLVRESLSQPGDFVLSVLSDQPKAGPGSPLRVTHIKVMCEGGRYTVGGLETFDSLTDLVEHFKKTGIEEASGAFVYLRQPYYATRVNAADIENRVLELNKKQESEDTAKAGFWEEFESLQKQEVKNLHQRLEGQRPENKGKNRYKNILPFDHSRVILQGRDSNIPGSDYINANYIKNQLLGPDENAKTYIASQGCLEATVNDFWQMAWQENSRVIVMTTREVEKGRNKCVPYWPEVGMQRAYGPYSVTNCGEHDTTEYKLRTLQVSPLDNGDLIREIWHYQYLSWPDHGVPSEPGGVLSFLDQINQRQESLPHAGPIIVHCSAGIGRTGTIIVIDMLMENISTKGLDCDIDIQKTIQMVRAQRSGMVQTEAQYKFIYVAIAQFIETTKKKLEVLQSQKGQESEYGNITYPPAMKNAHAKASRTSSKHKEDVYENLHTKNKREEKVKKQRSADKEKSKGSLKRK

[3] = biological target: T2, Tyrosine-protein phosphatase non-receptor type 11 (Homo sapiens, UniProt Q06124)
T2 sequence (Q06124 whole entry): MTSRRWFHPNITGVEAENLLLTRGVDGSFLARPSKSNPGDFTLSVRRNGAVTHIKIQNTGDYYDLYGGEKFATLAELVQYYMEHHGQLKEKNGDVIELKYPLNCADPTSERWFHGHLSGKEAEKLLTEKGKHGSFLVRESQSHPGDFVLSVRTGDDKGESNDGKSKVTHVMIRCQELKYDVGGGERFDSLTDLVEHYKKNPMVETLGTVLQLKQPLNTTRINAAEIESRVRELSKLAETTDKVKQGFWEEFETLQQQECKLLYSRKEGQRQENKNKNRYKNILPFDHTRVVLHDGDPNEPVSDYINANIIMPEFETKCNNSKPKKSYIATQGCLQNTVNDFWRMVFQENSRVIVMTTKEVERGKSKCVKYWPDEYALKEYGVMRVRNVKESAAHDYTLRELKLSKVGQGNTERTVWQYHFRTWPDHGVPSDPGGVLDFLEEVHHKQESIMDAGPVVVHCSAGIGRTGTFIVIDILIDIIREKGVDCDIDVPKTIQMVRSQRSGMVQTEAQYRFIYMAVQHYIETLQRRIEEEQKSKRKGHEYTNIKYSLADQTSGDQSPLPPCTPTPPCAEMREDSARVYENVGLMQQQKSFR

[4] = biological target: Receptor-type tyrosine-protein phosphatase F (Homo sapiens, UniProt P10586)
Receptor-type tyrosine-protein phosphatase F, sequence (P10586 whole entry): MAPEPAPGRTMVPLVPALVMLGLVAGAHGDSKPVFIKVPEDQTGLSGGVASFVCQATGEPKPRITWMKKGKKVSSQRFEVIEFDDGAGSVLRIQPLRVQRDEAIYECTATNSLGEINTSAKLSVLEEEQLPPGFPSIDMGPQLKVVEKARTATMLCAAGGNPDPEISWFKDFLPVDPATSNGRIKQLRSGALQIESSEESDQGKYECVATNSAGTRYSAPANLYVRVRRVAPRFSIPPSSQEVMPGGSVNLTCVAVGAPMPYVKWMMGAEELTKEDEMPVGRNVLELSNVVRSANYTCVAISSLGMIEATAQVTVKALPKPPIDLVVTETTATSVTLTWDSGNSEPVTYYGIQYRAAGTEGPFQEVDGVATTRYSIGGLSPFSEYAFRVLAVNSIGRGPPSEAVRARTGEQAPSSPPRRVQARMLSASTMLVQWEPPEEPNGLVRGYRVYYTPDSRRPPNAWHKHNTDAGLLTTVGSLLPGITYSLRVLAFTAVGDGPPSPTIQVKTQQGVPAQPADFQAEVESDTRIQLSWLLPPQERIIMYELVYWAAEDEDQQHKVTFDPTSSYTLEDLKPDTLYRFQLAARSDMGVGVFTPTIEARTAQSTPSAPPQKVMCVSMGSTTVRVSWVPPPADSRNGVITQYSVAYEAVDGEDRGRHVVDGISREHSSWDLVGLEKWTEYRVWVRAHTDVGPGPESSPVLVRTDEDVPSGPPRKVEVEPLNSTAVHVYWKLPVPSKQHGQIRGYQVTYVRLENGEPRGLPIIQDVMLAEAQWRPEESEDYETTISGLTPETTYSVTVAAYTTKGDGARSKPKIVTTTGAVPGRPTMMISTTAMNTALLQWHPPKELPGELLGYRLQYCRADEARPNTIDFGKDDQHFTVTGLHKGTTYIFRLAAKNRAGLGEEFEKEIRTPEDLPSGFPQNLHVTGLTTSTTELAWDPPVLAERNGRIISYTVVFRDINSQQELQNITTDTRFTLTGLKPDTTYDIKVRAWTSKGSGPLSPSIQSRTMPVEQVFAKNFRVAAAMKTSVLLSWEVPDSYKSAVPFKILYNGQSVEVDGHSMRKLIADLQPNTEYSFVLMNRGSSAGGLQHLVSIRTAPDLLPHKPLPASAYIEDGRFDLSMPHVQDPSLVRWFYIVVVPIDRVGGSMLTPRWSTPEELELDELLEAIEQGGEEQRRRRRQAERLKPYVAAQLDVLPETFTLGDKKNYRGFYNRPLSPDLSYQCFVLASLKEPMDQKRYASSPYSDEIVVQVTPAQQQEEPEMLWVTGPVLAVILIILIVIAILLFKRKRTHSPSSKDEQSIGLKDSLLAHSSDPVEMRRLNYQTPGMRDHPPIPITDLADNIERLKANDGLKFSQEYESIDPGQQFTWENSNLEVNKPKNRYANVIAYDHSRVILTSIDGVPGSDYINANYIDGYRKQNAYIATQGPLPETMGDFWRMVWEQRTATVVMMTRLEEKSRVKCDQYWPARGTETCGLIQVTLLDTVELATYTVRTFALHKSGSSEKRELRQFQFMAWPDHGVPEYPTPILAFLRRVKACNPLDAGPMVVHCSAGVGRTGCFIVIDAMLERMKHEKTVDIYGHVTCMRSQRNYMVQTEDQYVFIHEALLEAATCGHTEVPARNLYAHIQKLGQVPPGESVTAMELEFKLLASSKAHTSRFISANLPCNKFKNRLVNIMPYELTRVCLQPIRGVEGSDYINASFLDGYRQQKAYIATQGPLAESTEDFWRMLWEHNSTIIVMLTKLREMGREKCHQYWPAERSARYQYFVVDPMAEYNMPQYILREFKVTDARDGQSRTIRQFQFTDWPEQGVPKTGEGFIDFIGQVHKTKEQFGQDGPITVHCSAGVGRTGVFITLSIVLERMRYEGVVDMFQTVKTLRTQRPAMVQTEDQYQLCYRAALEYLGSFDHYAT

[5] = biological target: T3, Tyrosine-protein phosphatase non-receptor type 2 (Homo sapiens, UniProt P17706)
T3 sequence (P17706 whole entry): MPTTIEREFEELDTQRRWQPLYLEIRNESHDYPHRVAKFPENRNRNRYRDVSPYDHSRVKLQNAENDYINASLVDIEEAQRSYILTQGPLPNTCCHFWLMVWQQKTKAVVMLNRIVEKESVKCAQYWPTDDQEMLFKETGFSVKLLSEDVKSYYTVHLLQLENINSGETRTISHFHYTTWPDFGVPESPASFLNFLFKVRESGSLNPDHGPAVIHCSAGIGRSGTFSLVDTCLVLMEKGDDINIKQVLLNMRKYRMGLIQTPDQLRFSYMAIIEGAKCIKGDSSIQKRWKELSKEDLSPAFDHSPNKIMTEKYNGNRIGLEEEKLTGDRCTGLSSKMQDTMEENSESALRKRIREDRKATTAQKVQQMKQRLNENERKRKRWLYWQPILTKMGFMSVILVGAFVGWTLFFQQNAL

Row | IC50 [1] | SMILES | other results
1 | 11.1 µM | O=C(O)c1ccc(-n2cc(CO[C@H]3O[C@H](COCc4ccccc4)[C@@H](OCc4ccccc4)[C@H](OCc4ccccc4)[C@H]3OCc3ccccc3)nn2)cc1 [1-(4-Carboxyphenyl)-1H-1,2,3-triazol-4-ylmethyl 2,3,4,6-tetra-O-benzyl a-D-glucopyranoside (18)] | –
2 | > 100 µM | COC(=O)c1ccc(-n2cc(COC[C@H]3O[C@H](OC)[C@H](OCc4ccccc4)[C@@H](OCc4ccccc4)[C@@H]3OCc3ccccc3)nn2)cc1 [Methyl 2,3,4-tri-O-benzyl-6-O-[1-(4-(methoxycarbonyl)-phenyl)-1H-1,2,3-triazol-4-ylmethyl] a-D-glucopyranoside (12)] | –
3 | > 100 µM | CO[C@H]1O[C@H](COCc2cn(-c3ccc(C(C)=O)cc3)nn2)[C@@H](OCc2ccccc2)[C@H](OCc2ccccc2)[C@H]1OCc1ccccc1 [Methyl 2,3,4-tri-O-benzyl-6-O-[1-(4-acetylphenyl)-1H-1,2,3-triazol-4-ylmethyl] a-D-glucopyranoside (10)] | –
4 | > 100 µM | CO[C@H]1O[C@H](COCc2cn(-c3ccc(C(=O)O)cc3)nn2)[C@@H](OCc2ccccc2)[C@H](OCc2ccccc2)[C@H]1OCc1ccccc1 [Methyl 2,3,4-tri-O-benzyl-6-O-[1-(4-carboxyphenyl)-1H-1,2,3-triazol-4-ylmethyl] a-D-glucopyranoside (14)] | –
5 | 12.7 µM | COC(=O)C(=O)c1ccc(-n2cc(COC[C@H]3O[C@H](OC)[C@H](OCc4ccccc4)[C@@H](OCc4ccccc4)[C@@H]3OCc3ccccc3)nn2)cc1 [Methyl 2,3,4-tri-O-benzyl-6-O-[1-(4-(2-methoxy-2-oxoacetyl)phenyl)-1H-1,2,3-triazol-4-ylmethyl] a-D-glucopyranoside (13)] | –
6 | > 100 µM | COC(=O)c1ccc(-n2cc(CO[C@H]3O[C@H](COCc4ccccc4)[C@@H](OCc4ccccc4)[C@H](OCc4ccccc4)[C@H]3OCc3ccccc3)nn2)cc1 [1-(4-(Methoxycarbonyl)phenyl)-1H-1,2,3-triazol-4-ylmethyl 2,3,4,6-tetra-O-benzyl a-D-glucopyranoside (16)] | –
7 | 3.2 µM | CO[C@H]1O[C@H](COCc2cn(-c3ccc(C(=O)C(=O)O)cc3)nn2)[C@@H](OCc2ccccc2)[C@H](OCc2ccccc2)[C@H]1OCc1ccccc1 [Methyl 2,3,4-tri-O-benzyl-6-O-[1-(4-(carboxycarbonyl)phenyl)-1H-1,2,3-triazol-4-ylmethyl] a-D-glucopyranoside (15)] | IC50 [2]: > 100 µM; IC50 [3]: > 100 µM; IC50 [4]: > 100 µM; IC50 [5]: 14.5 µM
8 | > 100 µM | CC(=O)c1ccc(-n2cc(CO[C@H]3O[C@H](COCc4ccccc4)[C@@H](OCc4ccccc4)[C@H](OCc4ccccc4)[C@H]3OCc3ccccc3)nn2)cc1 [1-(4-Acetylphenyl)-1H-1,2,3-triazol-4-ylmethyl 2,3,4,6-tetra-O-benzyl a-D-glucopyranoside (11)] | –
9 | 12.3 µM | COC(=O)C(=O)c1ccc(-n2cc(CO[C@H]3O[C@H](COCc4ccccc4)[C@@H](OCc4ccccc4)[C@H](OCc4ccccc4)[C@H]3OCc3ccccc3)nn2)cc1 [1-(4-(2-Methoxy-2-oxoacetyl)phenyl)-1H-1,2,3-triazol-4-ylmethyl 2,3,4,6-tetra-O-benzyl-a-D-glucopyranoside (17)] | –
10 | 5.6 µM | O=C(O)C(=O)c1ccc(-n2cc(CO[C@H]3O[C@H](COCc4ccccc4)[C@@H](OCc4ccccc4)[C@H](OCc4ccccc4)[C@H]3OCc3ccccc3)nn2)cc1 [1-(4-(Carboxycarbonyl)phenyl)-1H-1,2,3-triazol-4-ylmethyl 2,3,4,6-tetra-O-benzyl a-D-glucopyranoside (19)] | IC50 [2]: > 100 µM; IC50 [3]: 55.4 µM; IC50 [4]: > 100 µM; IC50 [5]: 6.4 µM

Row | SMILES | IC50 [1] | other results
11 | [N-]=[N+]=Nc1ccc(C(=O)C(=O)O)cc1 [1-[4-(carboxycarbonyl)phenyl]triaz-2-yn-2-ium-1-ide (7)] | 30.2 µM | –
